Reference: ChEMBL document CHEMBL1157539, “Thousands of chemical starting points for antimalarial lead identification” (Nature, 2010)

Test system: Plasmodium falciparum
Assay: GSK_TCMDC: Inhibition of Plasmodium falciparum 3D7 in whole erythrocytes, using parasite LDH activity as an index of growth.
Assay type: functional, organism-based
Conditions: Plasmodium falciparum, 3D7

O=C1c2ccccc2-n2c1nc1ccccc1c2=O [TRYPTANTHRIN]
XC50: 0.856 µM

FC(F)c1nc2ccccc2n1-c1nc(N2CCOCC2)nc(N2CCOCC2)n1 [ZSTK-474]
XC50: 0.761 µM
